# In ChEMBL document CHEMBL3044960, “Evaluation of fungicide applications to sweet orange at different flowering stages for control of postbloom fruit drop caused by Colletotrichum acutatum” (2008):
# The source made the active and inactive calls. The calls are words filed in the database; no cut-off is given here.
# Assays:
# Colletotrichum acutatum [1] = assay: Fungicidal activity against Colletotrichum acutatum infested Citrus sinensis assessed as increase in fruit set at 1.25 g/l applied through airblast sprayer during open flower stage measured after 70 days; format: functional, organism-based
# Colletotrichum acutatum [2] = assay: Fungicidal activity against Colletotrichum acutatum infested Citrus sinensis assessed as total fruit weight per plant at 1.25 g/l applied through airblast sprayer during open flower stage measured after 70 days (Rvb =49.88 kg); format: functional
# Colletotrichum acutatum [3] = assay: Fungicidal activity against Colletotrichum acutatum infested Citrus sinensis assessed as reduction in persistant calyces at 1 g/l applied through airblast sprayer during green bud to white ball flower stages measured after 7 days; format: functional, organism-based
# Colletotrichum acutatum [4] = assay: Fungicidal activity against Colletotrichum acutatum infested Citrus sinensis assessed as reduction in symptomatic flowers at 1.25 g/l applied through airblast sprayer during open flower stage measured after 7 days; format: functional, organism-based
# Colletotrichum acutatum [5] = assay: Fungicidal activity against Colletotrichum acutatum infested Citrus sinensis assessed as reduction in symptomatic flowers at 1.25 g/l applied through airblast sprayer during white bud and hollow ball flower stages measured after 7 days; format: functional, organism-based
# Colletotrichum acutatum [6] = assay: Fungicidal activity against Colletotrichum acutatum infested Citrus sinensis assessed as reduction in symptomatic flowers at 1.25 g/l applied through airblast sprayer during green bud and hollow ball flower stages measured after 7 days; format: functional, organism-based
# Colletotrichum acutatum [7] = assay: Fungicidal activity against Colletotrichum acutatum infested Citrus sinensis assessed as total fruit weight per plant at 1.25 g/l applied through airblast sprayer during green bud flower stage measured after 70 days (Rvb =65.90 kg); format: functional
# Colletotrichum acutatum [8] = assay: Fungicidal activity against Colletotrichum acutatum infested Citrus sinensis assessed as total fruit weight per plant at 1.25 g/l applied through airblast sprayer during green bud until open flower stages measured after 70 days (Rvb =65.90 kg); format: functional
# Colletotrichum acutatum [9] = assay: Fungicidal activity against Colletotrichum acutatum infested Citrus sinensis assessed as total fruit weight per plant at 1.25 g/l applied through airblast sprayer during green bud, white bud and hollow ball flower stages measured after 70 days (Rvb =65.90 kg); format: functional
# Colletotrichum acutatum [10] = assay: Fungicidal activity against Colletotrichum acutatum infested Citrus sinensis assessed as increase in fruit production per tree at 1 g/l applied through airblast sprayer during green bud to white ball flower stages measured after 70 days; format: functional, organism-based
# Colletotrichum acutatum [11] = assay: Fungicidal activity against Colletotrichum acutatum infested Citrus sinensis assessed as reduction in persistant calyces at 1.25 g/l applied through airblast sprayer during green bud to white ball flower stages measured after 7 days; format: functional, organism-based
# Colletotrichum acutatum [12] = assay: Fungicidal activity against Colletotrichum acutatum infested Citrus sinensis assessed as reduction in symptomatic flowers at 1.25 g/l applied through airblast sprayer during hollow ball flower stage measured after 7 days; format: functional, organism-based
# Colletotrichum acutatum [13] = assay: Fungicidal activity against Colletotrichum acutatum infested Citrus sinensis assessed as increase in fruit set at 1.25 g/l applied through airblast sprayer during green bud, white bud and hollow ball flower stages measured after 70 days; format: functional, organism-based
# Colletotrichum acutatum [14] = assay: Fungicidal activity against Colletotrichum acutatum infested Citrus sinensis assessed as increase in fruit production per tree at 1.25 g/l applied through airblast sprayer during green bud to white ball flower stages measured after 70 days; format: functional, organism-based
# Colletotrichum acutatum [15] = assay: Fungicidal activity against Colletotrichum acutatum infested Citrus sinensis assessed as total fruit weight per plant at 1.25 g/l applied through airblast sprayer during hollow ball flower stage measured after 70 days (Rvb =49.88 kg); format: functional
# Colletotrichum acutatum [16] = assay: Fungicidal activity against Colletotrichum acutatum infested Citrus sinensis assessed as total fruit weight per plant at 1.25 g/l applied through airblast sprayer during green bud and hollow ball flower stages measured after 70 days (Rvb =49.88 kg); format: functional
# Colletotrichum acutatum [17] = assay: Fungicidal activity against Colletotrichum acutatum infested Citrus sinensis assessed as reduction in number of symptomatic flowers at 1.25 g/l applied through airblast sprayer during green bud, white bud and hollow ball flower stages measured after 7 days; format: functional, organism-based
# Colletotrichum acutatum [18] = assay: Fungicidal activity against Colletotrichum acutatum infested Citrus sinensis assessed as increase in fruit set at 1.25 g/l applied through airblast sprayer during white bud and hollow ball flower stages measured after 70 days relative to control; format: functional, organism-based
# Colletotrichum acutatum [19] = assay: Fungicidal activity against Colletotrichum acutatum infested Citrus sinensis assessed as total fruit weight per plant at 1.25 g/l applied through airblast sprayer during white bud and hollow ball flower stages measured after 70 days (Rvb =49.88 kg); format: functional
# Colletotrichum acutatum [20] = assay: Fungicidal activity against Colletotrichum acutatum infested Citrus sinensis assessed as total fruit weight per plant at 1.25 g/l applied through airblast sprayer during green bud and white bud flower stages measured after 70 days (Rvb =65.90 kg); format: functional
# Colletotrichum acutatum [21] = assay: Fungicidal activity against Colletotrichum acutatum infested Citrus sinensis assessed as increase in fruit set percentage at 1.25 g/l applied through airblast sprayer during green bud to white ball flower stages measured after 70 days; format: functional, organism-based
# Colletotrichum acutatum [22] = assay: Fungicidal activity against Colletotrichum acutatum infested Citrus sinensis assessed as increase in fruit set percentage at 1 g/l applied through airblast sprayer during green bud to white ball flower stages measured after 70 days; format: functional, organism-based
smiles,measurement,setting,value
O=C1c2ccccc2C(=O)N1SC(Cl)(Cl)Cl [FOLPET],Activity,Colletotrichum acutatum [1],inactive
same,Activity,Colletotrichum acutatum [2],61.2 kg
same,Activity,Colletotrichum acutatum [3],Active
same,Activity,Colletotrichum acutatum [4],inactive
same,Activity,Colletotrichum acutatum [5],Active
same,Activity,Colletotrichum acutatum [6],Active
same,Activity,Colletotrichum acutatum [7],48.7 kg
same,Activity,Colletotrichum acutatum [8],86.9 kg
same,Activity,Colletotrichum acutatum [9],87.7 kg
same,Activity,Colletotrichum acutatum [10],Active
same,Activity,Colletotrichum acutatum [11],Active
same,Activity,Colletotrichum acutatum [12],Active
same,Activity,Colletotrichum acutatum [13],Active
same,Activity,Colletotrichum acutatum [14],Active
same,Activity,Colletotrichum acutatum [15],48.2 kg
same,Activity,Colletotrichum acutatum [16],46 kg
same,Activity,Colletotrichum acutatum [17],Active
same,Activity,Colletotrichum acutatum [18],Active
same,Activity,Colletotrichum acutatum [19],59.6 kg
same,Activity,Colletotrichum acutatum [20],53.5 kg
same,Activity,Colletotrichum acutatum [21],Active
same,Activity,Colletotrichum acutatum [22],Active
